From ChEMBL document CHEMBL1150491, “Chemistry and pharmacokinetics of diarylthiophenes and terphenyls as selective COX-2 inhibitors” (Bioorg Med Chem Lett, 1996)
pIC50: −log10 of the molar value. Each block holds one compound with its values, some of them ahead of it.

Tests used:
[1] = target: T1, Prostaglandin G/H synthase 1 (Ovis aries, UniProt P05979); test: Compound was evaluated for inhibitory activity against ovine Prostaglandin G/H synthase 1
T1 sequence (P05979 whole entry): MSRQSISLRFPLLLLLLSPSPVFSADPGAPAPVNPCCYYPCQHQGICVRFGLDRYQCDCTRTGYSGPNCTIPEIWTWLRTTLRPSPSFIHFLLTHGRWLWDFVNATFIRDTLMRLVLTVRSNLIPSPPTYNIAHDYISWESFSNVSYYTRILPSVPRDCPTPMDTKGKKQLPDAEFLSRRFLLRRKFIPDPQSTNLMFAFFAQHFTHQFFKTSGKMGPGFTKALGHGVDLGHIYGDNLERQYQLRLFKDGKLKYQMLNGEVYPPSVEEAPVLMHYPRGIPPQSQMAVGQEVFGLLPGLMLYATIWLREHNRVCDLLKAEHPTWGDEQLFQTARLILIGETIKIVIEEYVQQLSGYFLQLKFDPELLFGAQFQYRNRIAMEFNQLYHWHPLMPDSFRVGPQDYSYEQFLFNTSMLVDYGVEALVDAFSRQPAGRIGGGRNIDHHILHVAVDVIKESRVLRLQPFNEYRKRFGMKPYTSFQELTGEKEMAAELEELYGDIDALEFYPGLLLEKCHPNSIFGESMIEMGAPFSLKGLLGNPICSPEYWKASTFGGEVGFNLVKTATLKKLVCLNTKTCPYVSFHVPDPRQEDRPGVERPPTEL

[2] = target: T2, Prostaglandin G/H synthase 2 (Homo sapiens, UniProt P35354); test: Compound was evaluated for inhibitory activity against human Prostaglandin G/H synthase 2
T2 sequence (P35354 whole entry): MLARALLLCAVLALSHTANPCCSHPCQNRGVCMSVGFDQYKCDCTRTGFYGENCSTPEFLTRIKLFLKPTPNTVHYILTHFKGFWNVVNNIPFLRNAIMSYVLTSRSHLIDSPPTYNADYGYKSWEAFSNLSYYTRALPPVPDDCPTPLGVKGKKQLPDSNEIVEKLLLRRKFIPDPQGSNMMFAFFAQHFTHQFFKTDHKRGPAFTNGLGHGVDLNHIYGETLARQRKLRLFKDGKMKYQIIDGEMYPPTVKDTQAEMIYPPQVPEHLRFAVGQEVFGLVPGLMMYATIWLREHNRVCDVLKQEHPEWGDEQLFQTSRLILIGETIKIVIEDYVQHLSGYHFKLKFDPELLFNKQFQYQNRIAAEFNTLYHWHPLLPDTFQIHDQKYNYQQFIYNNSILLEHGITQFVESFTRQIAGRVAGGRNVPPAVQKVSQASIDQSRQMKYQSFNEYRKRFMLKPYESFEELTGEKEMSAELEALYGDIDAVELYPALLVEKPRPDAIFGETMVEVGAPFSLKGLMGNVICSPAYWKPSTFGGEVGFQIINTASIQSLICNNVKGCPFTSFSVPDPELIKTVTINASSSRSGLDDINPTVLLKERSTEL

[3] = Volume of distribution was evaluated in Sprague-Dawley rats at a dose of 15 mg/kg after iv administration; assay type: ADME, organism-based; design: dose 15 mg/kg, route intravenous; conditions: rat, in vivo, read-out: Vss
[4] = Oral bioavailability in rat (Sprague-Dawley) (dose 15 mg/kg); assay type: ADME, organism-based; conditions: in vivo
[5] = Plasma clearance was evaluated in Sprague-Dawley rats at a dose of 15 mg/kg after iv administration; assay type: ADME, organism-based; design: dose 15 mg/kg, route intravenous; conditions: rat
[6] = Time taken to reach maximum concentration in plasma was evaluated in Sprague-Dawley rats at a dose of 15 mg/kg after po administration; assay type: ADME, organism-based; design: dose 15 mg/kg, route oral; conditions: rat
[7] = Maximum concentration in plasma was evaluated in Sprague-Dawley rats at a dose of 15 mg/kg after po administration; assay type: ADME, organism-based; design: dose 15 mg/kg, route oral; conditions: rat
[8] = Half life period was evaluated against Sprague-Dawley rats at a dose of 15 mg/kg after iv administration; assay type: ADME, organism-based; design: dose 15 mg/kg, route intravenous; conditions: rat, in vivo
[9] = Bioavailability was evaluated against Beagle dog at a dose of 15 mg/kg after po administration; assay type: ADME, organism-based, Canis lupus familiaris; conditions: in vivo
[10] = Area under curve was evaluated against man at a dose of 10 mg/kg after po administration; assay type: ADME, organism-based; design: dose 10 mg/kg, route oral; conditions: human, in vivo
Canis familiaris [11] = test: Area under curve was evaluated against Beagle dog at a dose of 15 mg/kg after po administration; assay type: ADME, organism-based, Canis lupus familiaris; design: dose 15 mg/kg, route oral; conditions: in vivo
[12] = Bioavailability was evaluated against Cynomolgus monkey at a dose of 15 mg/kg after po administration; assay type: ADME, organism-based, Macaca fascicularis; conditions: in vivo
[13] = Maximum time was evaluated against Cynomolgus monkey at a dose of 15 mg/kg after po administration; assay type: ADME, organism-based; design: dose 15 mg/kg, route oral; conditions: cercopithecidae, in vivo
Canis familiaris [14] = test: Maximum concentration was evaluated against Beagle dog at a dose of 15 mg/kg after po administration; assay type: ADME, organism-based, Canis lupus familiaris; design: dose 15 mg/kg, route oral; conditions: in vivo
[15] = Half life period was evaluated in Sprague-Dawley rats at a dose of 15 mg/kg after po administration; assay type: ADME, organism-based; design: dose 15 mg/kg, route oral; conditions: rat, in vivo
[16] = Maximum concentration was evaluated against man at a dose of 10 mg/kg after po administration; assay type: ADME, organism-based; design: dose 10 mg/kg, route oral; conditions: human, in vivo
Canis familiaris [17] = test: Half life period was evaluated against Beagle dog at a dose of 15 mg/kg after po administration; assay type: ADME, organism-based, Canis lupus familiaris; design: dose 15 mg/kg, route oral; conditions: in vivo
[18] = Area under curve was evaluated against Cynomolgus monkey at a dose of 15 mg/kg after po administration; assay type: ADME, organism-based; design: dose 15 mg/kg, route oral; conditions: cercopithecidae, in vivo
[19] = Half life period was evaluated against Cynomolgus monkey at a dose of 15 mg/kg after po administration; assay type: ADME, organism-based; design: dose 15 mg/kg, route oral; conditions: cercopithecidae, in vivo
[20] = Half life period was evaluated against man at a dose of 10 mg/kg after po administration; assay type: ADME, organism-based; design: dose 10 mg/kg, route oral; conditions: human, in vivo
Canis familiaris [21] = test: Maximum time was evaluated against Beagle dog at a dose of 15 mg/kg after po administration; assay type: ADME, organism-based, Canis lupus familiaris; design: dose 15 mg/kg, route oral; conditions: in vivo
[22] = Maximum concentration was evaluated against Cynomolgus monkey at a dose of 15 mg/kg after po administration; assay type: ADME, organism-based; design: dose 15 mg/kg, route oral; conditions: cercopithecidae, in vivo
[23] = Maximum time was evaluated against man at a dose of 10 mg/kg after po administration; assay type: ADME, organism-based; design: dose 10 mg/kg, route oral; conditions: human, in vivo

Structure (SMILES): CS(=O)(=O)c1ccc(-c2c(-c3ccccc3)sc3c2CCCC3)cc1
- pIC50 [1]: < 3.00
- pIC50 [2]: 4.72

Structure (SMILES): CS(=O)(=O)c1ccc(-c2ccsc2-c2ccccc2)cc1
- pIC50 [1]: < 3.00
- pIC50 [2]: 5.40

Structure (SMILES): CS(=O)(=O)c1ccc(-c2ccccc2-c2ccccc2)cc1
- pIC50 [1]: < 3.00
- pIC50 [2]: 4.96
- Vd [3]: 3.08 L/kg
- bioavailability [4]: 60%
- clearance [5]: 35.8 mL/min/kg
- Tmax [6]: 0.25 h
- Cmax [7]: 1430 ng/mL
- half-life [8]: 1.7 h

Structure (SMILES): Cc1ccc(-c2sccc2-c2ccc(S(C)(=O)=O)cc2)cc1
- pIC50 [1]: < 3.00
- pIC50 [2]: 4.89

Structure (SMILES): CS(=O)(=O)c1ccc(-c2cc([N+](=O)[O-])sc2-c2ccc(F)cc2)cc1
- pIC50 [1]: < 3.00
- pIC50 [2]: 4.85

Structure (SMILES): CS(=O)(=O)c1ccc(-c2cc(Br)sc2-c2ccc(F)cc2)cc1 [DUP-697]
- bioavailability [9]: 4.4%
- AUC [10]: 3240 µg·h/mL
- AUC (Canis familiaris [11]): 1.5 µg·h/mL
- bioavailability [12]: 30.4%
- Vd [3]: 6.3 L/kg
- Tmax [13]: 24 h
- bioavailability [4]: 75%
- Cmax (Canis familiaris [14]): 411 ng/mL
- half-life [15]: 16.6 h
- clearance [5]: 3.63 mL/min/kg
- Cmax [16]: 60.5 ng/mL
- T1/2 (Canis familiaris [17]): 6 h
- Tmax [6]: 8 h
- Cmax [7]: 2400 ng/mL
- half-life [8]: 22 h
- AUC [18]: 56 µg·h/mL
- half-life [19]: 31.8 h
- half-life [20]: 292 h
- T max (Canis familiaris [21]): 1 h
- Cmax [22]: 698 ng/mL
- Tmax [23]: 3 h

Structure (SMILES): CS(=O)(=O)c1ccc(-c2cscc2-c2ccc(S(C)(=O)=O)cc2)cc1
- pIC50 [1]: < 3.52
- pIC50 [2]: < 3.52

Structure (SMILES): CS(=O)(=O)c1ccc(-c2cc(Sc3ccccc3)sc2-c2ccc(F)cc2)cc1
- pIC50 [1]: < 3.52
- pIC50 [2]: 4.18

Structure (SMILES): COc1ccc(-c2cscc2-c2ccc(S(C)(=O)=O)cc2)cc1
- pIC50 [1]: < 3.00
- pIC50 [2]: 5.30

Structure (SMILES): CS(=O)(=O)c1ccc(-c2cscc2-c2ccccc2)cc1
- pIC50 [1]: < 3.00
- pIC50 [2]: 5.40

Structure (SMILES): CS(=O)(=O)c1ccc(-c2cc(CC#N)sc2-c2ccc(F)cc2)cc1
- pIC50 [1]: < 3.52
- pIC50 [2]: 4.31

The next lines start with the values.

- pIC50 [1]: 4.92
- pIC50 [2]: < 3.52
Structure (SMILES): CS(=O)(=O)c1ccc(-c2cc(CCC(=O)O)sc2-c2ccc(F)cc2)cc1

- pIC50 [1]: 3.17
- pIC50 [2]: 5.10
Structure (SMILES): CS(=O)(=O)c1ccc(-c2cscc2-c2ccc(F)cc2)cc1

- pIC50 [1]: < 3.52
- pIC50 [2]: 3.70
Structure (SMILES): CS(=O)(=O)c1ccc(-c2cc(S(C)(=O)=O)sc2-c2ccc(F)cc2)cc1

- pIC50 [1]: 4.82
- pIC50 [2]: 4.00
Structure (SMILES): CSc1ccc(-c2cscc2-c2ccc(SC)cc2)cc1

- pIC50 [1]: 4.55
- pIC50 [2]: < 3.52
- Vd [3]: 19.6 L/kg
- bioavailability [4]: 20%
- clearance [5]: 51.3 mL/min/kg
- Tmax [6]: 4.2 h
- Cmax [7]: 100 ng/mL
- half-life [8]: 4.94 h
Structure (SMILES): c1ccc(-c2ccsc2-c2ccccc2)cc1

- pIC50 [1]: 4.32
- pIC50 [2]: 5.30
Structure (SMILES): COc1ccc(-c2sccc2-c2ccc(S(C)(=O)=O)cc2)cc1

- pIC50 [1]: 4.03
- pIC50 [2]: 5.22
Structure (SMILES): CSc1ccc(-c2cscc2-c2ccc(S(C)(=O)=O)cc2)cc1

- pIC50 [1]: 3.70
- pIC50 [2]: 3.89
Structure (SMILES): CCOC(=O)CCc1cc(-c2ccc(S(C)(=O)=O)cc2)c(-c2ccc(F)cc2)s1

- pIC50 [1]: 3.53
- pIC50 [2]: 4.07
Structure (SMILES): CS(=O)(=O)c1ccc(-c2ccsc2-c2ccc(O)cc2)cc1

- pIC50 [1]: 4.00
- pIC50 [2]: < 3.52
Structure (SMILES): CCOC(=O)/C=C/c1cc(-c2ccc(S(C)(=O)=O)cc2)c(-c2ccc(F)cc2)s1

- pIC50 [1]: 3.31
- pIC50 [2]: 5.10
- Vd [3]: 19 L/kg
- bioavailability [4]: 3.4%
- half-life [15]: 12.1 h
- clearance [5]: 158 mL/min/kg
- Tmax [6]: 4 h
- Cmax [7]: 8 ng/mL
- half-life [8]: 14.3 h
Structure (SMILES): CS(=O)(=O)c1ccc(-c2ccsc2-c2ccc(F)cc2)cc1

- pIC50 [1]: 3.36
- pIC50 [2]: 5.40
Structure (SMILES): Cc1ccc(-c2cscc2-c2ccc(S(C)(=O)=O)cc2)cc1

- pIC50 [1]: 4.10
- pIC50 [2]: 5.00
- Vd [3]: 16.8 L/kg
- bioavailability [4]: 0.9%
- clearance [5]: 28.2 mL/min/kg
- Tmax [6]: 0.7 h
- Cmax [7]: 20 ng/mL
- half-life [8]: 19.4 h
Structure (SMILES): Cc1cc(-c2ccc(S(C)(=O)=O)cc2)c(-c2ccc(F)cc2)s1

- pIC50 [1]: 5.22
- pIC50 [2]: 5.52
Structure (SMILES): CS(=O)(=O)c1ccc(-c2cc(N)sc2-c2ccc(F)cc2)cc1
